Test results taken from patent US5916892A, “Trans cyclopentanyl deazaadenyl analogs useful as immunosuppressants” (Hoechst Marion Roussel, Inc., priority 1997, dated 1999).
Structures can show the parent of a compound that is named as a salt.

Experiments:
[1] = tested on: endotoxin-induced septic shock; assay: Mouse endotoxin lethality model (D-galactosamine and LPS); type: in vivo, CF1 mice; settings: 100 mg/kg i.p., pretreated at t=-1 hr; death observed over 8-72 hours
Description: Using the method of Silverstein, (J. Exp. Med. 173, 357 (1991)) a mouse endotoxin lethality model may be used to determine if a compound of formula (1) has the ability to inhibit endotoxin-induced septic shock which is dependent on the production of Tumor Necrosis Factor-α (TNF-α). CF1 mice pretreated at time (t)=-1 hr with drug are challenged with 18 mg of D-glactoseamine and 50 ng of LPS, then observed for death over an 8-72 hour period.

[2] = tested on: Rat macrophage antigen presentation and the subsequent production of Interleukin-2; assay: Regulation of macrophage antigen presentation (mBSA) to rat T-cell hybridoma, Interleukin-2 measured; type: cell-based, Lewis (LEW/N) rat
Description: Using the method of Ku (Cellular Immunology 130,(1990)) and a Lewis (LEW/N) rat T-cell hybridoma reactive with the protein methylated bovine serum albumin (mBSA), the ability of a compound of formula (1) to regulate M.phi. antigen presentation in vitro may be measured. Peritoneal macrophages obtained from LEW/N rats are plated into tissue culture and treated with 100 ug of mBSA and drug. A control is prepared similarly. After a period of 18 hours the cells are washed and incubated with the T-cell hybridoma for an additional 12 hours. Supernatants from these cultures are obtained and measured for content of Interleukin-2, a T-cell derived lymphokine which is produced by activated T-cells.

**Q.** For `Nc1ncnc2c1ncn2[C@@H]1CC[C@@H](O)C1` [(1R,3R)-TRANS-1(9-ADENYL)CYCLOPENTAN-3-OL HYDROCHLORIDE], which “protection against endotoxin lethality” value [1] is on record?
**A.** protects against endotoxin lethality

**Q.** And the “T-cell activation / antigen presentation and Interleukin-2 production (in words)” value ([2]; 0.1 to 100 uM)?
**A.** inhibits T-cell activation

**Q.** What about the inhibition at 0.1 µM ([2]; Rattus norvegicus, Macrophage, In Vitro Concentration 0.1 uM, IL-2 production) of the same compound?
**A.** 7.6%

**Q.** What about the inhibition at 1 µM ([2]; Rattus norvegicus, Macrophage, In Vitro Concentration 1.0 uM, IL-2 production) of the same compound?
**A.** 30.9%

**Q.** What about the inhibition at 10 µM ([2]; Rattus norvegicus, Macrophage, In Vitro Concentration 10.0 uM, IL-2 production) of the same compound?
**A.** 48.7%

**Q.** What about the inhibition at 100 µM ([2]; Rattus norvegicus, Macrophage, In Vitro Concentration 100.0 uM, IL-2 production) of the same compound?
**A.** 55.3%
